Measured values: patent US6800101B2, “Deactivatable biocides for hydrocarbonaceous products” (priority 2001, dated 2004)

Legend:
[1] = test system: alkane degrading culture; assay: Evaluation of biocides: growth inhibition on FT diesel and ALAD diesel; type: cell-based; on microbial growth: key: −: No Growth; +: Growth (White Unless Otherwise Indicated)
Description: Growth Media: A standard minimal media containing only inorganic nutrients required for bacterial growth was used. The medium used to supply inorganic micronutrients to the growing culture of alkane degrading organisms consisted of 0.1 g/L MgSO4.7H2O, 0.5 g/L NaNO3, 0.02 millimolar FeSO4 and 0.63 g/L K2HPO4 and 0.19 g/L KH2PO4 to achieve a pH of 7 to 7.3.
Test Conditions: 90 ml of growth media and 10 ml of either FT diesel or low sulfur (ALAD) diesel was added to 250 ml flasks. […] In addition to 2 alkynes, glutaraldehyde (glutaric dialdehyde 50%), was tested. The following summarizes the test conditions:
Sterile control (media boiled prior to adding FT or ALAD, not inoculated)
Inculated control (no inhibitor)
100 ppm inhibitor (on a total test volume basis or 1000 ppm in diesel)
1% inhibitor (on a total test volume basis or 10% in diesel).
After inoculation, the flasks were place on a shaker-table (135 rpm) at room temperature and observed daily.

[2] = test system: microbial growth; assay: Evaluation of lower amounts of water; type: cell-based; conditions: 100 ppm; 90% Fischer-Tropsch diesel fuel, 10% minimal media; after 16 days
From the text: In this example, an experiment was done using a lower amount of water. 90% Fischer-Tropsch diesel fuel was mixed with 10% minimal media. One flask was used as a control and the other contained 100 ppm […].

[3] = test system: bacterial inoculum; assay: Neutralization of biocides with other nitrogen compounds; type: cell-based; conditions: for microbial growth: n-C16; for neutralizing 10 ppm of gluteraldehyde: two moles per mole gluteraldehyde
From the text: The different nitrogen-containing compounds evaluated include the following:

[4] = test system: bacteria; type: cell-based
[5] = in vivo; type: in vivo; conditions: Cyprinodon variegatus (sheepshead minnow), in vivo
Description: (§1) […]. EPA/600/4-90/027F Washington D.C. section 2.02, paragraph 1.) conducted at Pacific Eco-Risk Laboratories, Martinez, Calif.
(§2) LOEC is the Lowest Observable Effect Concentration and is defined as the minimum concentration where mortality is observed for the test species. […] LC-50, the concentration that will cause mortality of 50% of the organisms tested within 96 h, is a calculated value based on all observations.
(§3) The solutions were mixed for 48 hours prior to the start of the bioassays. The solutions were diluted to perform bioassays at starting glutaraldehyde concentrations of 100, 50, 37.5, 25, and 10, 5 mg/L

[6] = test system: Larval Sheepshead Minnow (Cyprinodon variegatus); assay: in vivo; type: in vivo; conditions: for LOEC / NOEC: Cyprinodon variegatus (sheepshead minnow), in vivo, 96 h
Description: as §1, §2, §3

[7] = LA (ALAD) Diesel + 1 Wt %, Day 0
[8] = LA (ALAD) Diesel + 1 Wt %, Day 1
[9] = LA (ALAD) Diesel + 1 Wt %, Day 5
[10] = LA (ALAD) Diesel + 1 Wt %, Day 7
[11] = LA (ALAD) Diesel + 1 Wt %, Day 8
[12] = LA (ALAD) Diesel + 1 Wt %, Day 19
[13] = LA (ALAD) Diesel + 100 ppm, Day 0
[14] = LA (ALAD) Diesel + 100 ppm, Day 1
[15] = LA (ALAD) Diesel + 100 ppm, Day 5
[16] = LA (ALAD) Diesel + 100 ppm, Day 7
[17] = LA (ALAD) Diesel + 100 ppm, Day 8
[18] = LA (ALAD) Diesel + 100 ppm, Day 19
[19] = 10 ppm gluteraldehyde + two moles nitrogen compound per mole, day 0
[20] = 10 ppm gluteraldehyde + two moles nitrogen compound per mole, day 1
[21] = 10 ppm gluteraldehyde + two moles nitrogen compound per mole, day 2
[22] = 10 ppm gluteraldehyde + two moles nitrogen compound per mole, day 6
[23] = 10 ppm gluteraldehyde + two moles nitrogen compound per mole, day 7
[24] = 10 ppm gluteraldehyde + two moles nitrogen compound per mole, day 9
[25] = 10 ppm gluteraldehyde + two moles nitrogen compound per mole, day 13
[26] = 10 ppm gluteraldehyde + two moles nitrogen compound per mole, day 20
[27] = control: nitrogen compound without gluteraldehyde, day 0
[28] = control: nitrogen compound without gluteraldehyde, day 1
[29] = control: nitrogen compound without gluteraldehyde, day 2
[30] = control: nitrogen compound without gluteraldehyde, day 6
[31] = control: nitrogen compound without gluteraldehyde, day 7
[32] = control: nitrogen compound without gluteraldehyde, day 9
[33] = control: nitrogen compound without gluteraldehyde, day 13
[34] = control: nitrogen compound without gluteraldehyde, day 20

With `C#CCCCC` [H, 1-hexyne] the microbial growth ([1]; FT Diesel + 1 Wt %, Day 0) was “−”, the microbial growth ([1]; FT Diesel + 1 Wt %, Day 1) was “−” and the microbial growth ([1]; FT Diesel + 1 Wt %, Day 5) was “−”. For the same molecule, the microbial growth ([1]; FT Diesel + 1 Wt %, Day 7) was “−”, the microbial growth ([1]; FT Diesel + 1 Wt %, Day 8) was “−” and the microbial growth ([1]; FT Diesel + 1 Wt %, Day 19) was “−”. The microbial growth ([1]; FT Diesel + 100 ppm, Day 0) was “−”, the microbial growth ([1]; FT Diesel + 100 ppm, Day 1) was “−” and the microbial growth ([1]; FT Diesel + 100 ppm, Day 5) was “+”. For the same molecule, the microbial growth ([1]; FT Diesel + 100 ppm, Day 7) was “+”, the microbial growth ([1]; FT Diesel + 100 ppm, Day 8) was “+” and the microbial growth ([1]; FT Diesel + 100 ppm, Day 19) was “+”. For the same molecule, the microbial growth [1, 7] was “−”, the microbial growth [1, 8] was “−” and the microbial growth [1, 9] was “−”. The microbial growth [1, 10] was “−”, the microbial growth [1, 11] was “−” and the microbial growth [1, 12] was “−”. The microbial growth [1, 13] was “−”, the microbial growth [1, 14] was “−” and the microbial growth [1, 15] was “+”. The microbial growth [1, 16] was “+”, the microbial growth [1, 17] was “+” and the microbial growth [1, 18] was “+”. The microbial growth [2] was “no growth”.
In the case of `Nc1ccccc1` [aniline, Aniline], the “toxicity of the nitrogen-containing compound to microbial growth” value (shortened to “toxicity”) [3] is reported as “excessively toxic”, the microbial growth [3, 19] is reported as “−” and the microbial growth [3, 20] is reported as “−”. For the same molecule, the microbial growth [3, 21] was “−”, the microbial growth [3, 22] was “−” and the microbial growth [3, 23] was “−”. For the same molecule, the microbial growth [3, 24] was “−”, the microbial growth [3, 25] was “−” and the microbial growth [3, 26] was “−”.
With `C#CCO` [P, Propargyl alcohol] the microbial growth ([1]; FT Diesel + 1 Wt %, Day 0) was “−”, the microbial growth ([1]; FT Diesel + 1 Wt %, Day 1) was “−” and the microbial growth ([1]; FT Diesel + 1 Wt %, Day 5) was “−”. For the same molecule, the microbial growth ([1]; FT Diesel + 1 Wt %, Day 7) was “−”, the microbial growth ([1]; FT Diesel + 1 Wt %, Day 8) was “−” and the microbial growth ([1]; FT Diesel + 1 Wt %, Day 19) was “−”. For the same molecule, the microbial growth ([1]; FT Diesel + 100 ppm, Day 0) was “−”, the microbial growth ([1]; FT Diesel + 100 ppm, Day 1) was “−” and the microbial growth ([1]; FT Diesel + 100 ppm, Day 5) was “−”. For the same molecule, the microbial growth ([1]; FT Diesel + 100 ppm, Day 7) was “+”, the microbial growth ([1]; FT Diesel + 100 ppm, Day 8) was “+” and the microbial growth ([1]; FT Diesel + 100 ppm, Day 19) was “+”. The microbial growth [1, 7] was “−”, the microbial growth [1, 8] was “−” and the microbial growth [1, 9] was “−”. For the same molecule, the microbial growth [1, 10] was “−”, the microbial growth [1, 11] was “−” and the microbial growth [1, 12] was “−”. The microbial growth [1, 13] was “−”, the microbial growth [1, 14] was “−” and the colour of growth [1, 15] was “Yellow”. The microbial growth [1, 15] was “+”, the colour of growth [1, 16] was “Yellow” and the microbial growth [1, 16] was “+”. The colour of growth [1, 17] was “Yellow”, the microbial growth [1, 17] was “+” and the colour of growth [1, 18] was “Yellow”. The microbial growth [1, 18] was “+”.
In the case of `O=CCCCC=O` [G, glutaraldehyde], the effectiveness as biocide ([1]; ALAD diesel fuel) is reported as “effective at a lower concentration”, the microbial growth ([1]; FT Diesel + 1 Wt %, Day 0) is reported as “−” and the microbial growth ([1]; FT Diesel + 1 Wt %, Day 1) is reported as “−”. The microbial growth ([1]; FT Diesel + 1 Wt %, Day 5) was “−”, the microbial growth ([1]; FT Diesel + 1 Wt %, Day 7) was “−” and the microbial growth ([1]; FT Diesel + 1 Wt %, Day 8) was “−”. For the same molecule, the microbial growth ([1]; FT Diesel + 1 Wt %, Day 19) was “−”, the microbial growth ([1]; FT Diesel + 100 ppm, Day 0) was “−” and the microbial growth ([1]; FT Diesel + 100 ppm, Day 1) was “−”. For the same molecule, the microbial growth ([1]; FT Diesel + 100 ppm, Day 5) was “−”, the microbial growth ([1]; FT Diesel + 100 ppm, Day 7) was “−” and the microbial growth ([1]; FT Diesel + 100 ppm, Day 8) was “−”. For the same molecule, the microbial growth ([1]; FT Diesel + 100 ppm, Day 19) was “+”, the effectiveness as biocide ([1]; Fischer-Tropsch diesel fuel) was “effective at a lower concentration” and the microbial growth [1, 7] was “−”. The microbial growth [1, 8] was “−”, the microbial growth [1, 9] was “−” and the microbial growth [1, 10] was “−”. For the same molecule, the microbial growth [1, 11] was “−”, the microbial growth [1, 12] was “−” and the microbial growth [1, 13] was “−”. For the same molecule, the microbial growth [1, 14] was “−”, the microbial growth [1, 15] was “−” and the microbial growth [1, 16] was “−”. The microbial growth [1, 17] was “−”, the microbial growth [1, 18] was “−” and the microbial growth [4] was “no growth”. It also gave an LC50 at 96 h [5] of over 100 µg/mL, an LOEC [6] of 25 mg/L and an NOEC [6] of 13 mg/L. The LC50 ([6]; second experiment, Glutaraldehyde 100 mg/L, MEA 125 mg/L, molar ratio 1:2, mixed 48 hours) was over 100 mg/L.
With `NCCO` [MEA, Monoethanolamine] the “toxicity” value [3] was “not excessively toxic”, the microbial growth [3, 19] was “−” and the microbial growth [3, 20] was “−”. The microbial growth [3, 21] was “−”, the microbial growth [3, 22] was “+” and the microbial growth [3, 23] was “+”. For the same molecule, the microbial growth [3, 24] was “+”, the microbial growth [3, 25] was “+” and the microbial growth [3, 26] was “+”. The microbial growth [3, 27] was “−”, the microbial growth [3, 28] was “−” and the microbial growth [3, 29] was “−”. The microbial growth [3, 30] was “−”, the microbial growth [3, 31] was “+” and the microbial growth [3, 32] was “+”. For the same molecule, the microbial growth [3, 33] was “+”, the microbial growth [3, 34] was “+” and the “neutralizing 10 ppm of gluteraldehyde” value [3] was “effective”. The LOEC [6] was 1700 mg/L and the NOEC [6] was 1000 mg/L.
In the case of `CCNCC` [diethylamine, Diethylamine], the “toxicity” value [3] is reported as “not excessively toxic”, the microbial growth [3, 19] is reported as “−” and the microbial growth [3, 20] is reported as “−”. The microbial growth [3, 21] was “−”, the microbial growth [3, 22] was “+” and the microbial growth [3, 23] was “+”. For the same molecule, the microbial growth [3, 24] was “+”, the microbial growth [3, 25] was “+” and the microbial growth [3, 26] was “+”. For the same molecule, the microbial growth [3, 27] was “−”, the microbial growth [3, 28] was “−” and the microbial growth [3, 29] was “−”. For the same molecule, the microbial growth [3, 30] was “+”, the microbial growth [3, 31] was “+” and the microbial growth [3, 32] was “+”. For the same molecule, the microbial growth [3, 33] was “+”, the microbial growth [3, 34] was “+” and the “neutralizing 10 ppm of gluteraldehyde” value [3] was “effective”.
With `OCCNCCO` [DEA, Diethanolamine] the “toxicity” value [3] was “not excessively toxic”, the microbial growth [3, 19] was “−” and the microbial growth [3, 20] was “+”. The microbial growth [3, 21] was “+”, the microbial growth [3, 22] was “+” and the microbial growth [3, 23] was “+”. For the same molecule, the microbial growth [3, 24] was “+”, the microbial growth [3, 25] was “+” and the microbial growth [3, 26] was “+”. The microbial growth [3, 27] was “−”, the microbial growth [3, 28] was “−” and the microbial growth [3, 29] was “−”. The microbial growth [3, 30] was “+”, the microbial growth [3, 31] was “+” and the microbial growth [3, 32] was “+”. The microbial growth [3, 33] was “+”, the microbial growth [3, 34] was “+” and the “neutralizing 10 ppm of gluteraldehyde” value [3] was “effective”.
